According to patent publication US20180193321A1, “INDOLO[…]” (The Rockefeller University, priority 2015, published 2018):

Key:
[1] = Cytotoxicity / antiproliferative activity, crystal violet viability assay; format: cell-based, human; details: human, HCT-116 colon carcinoma cells; HCT-116 cells, 3 days incubation, crystal violet absorbance at 590 nm relative to DMSO control, triplicate; read-out: IC50 (cytotoxicity against HCT-116)
Protocol: (§1) Because known indolotryptolines are potent human cell line toxins, lazarimide C, novel compounds 6 and 7, as well as cladoniamide A as a control, were tested for cytotoxicity against HCT-116 human colon carcinoma cancer cells.
(§2) The compounds were tested for antiproliferative activity in triplicate using the colon carcinoma cell line HCT-116 (ATCC; CCL-247) [See Brattain et al., “Heterogeneity of malignant cells from a human colonic carcinoma.” Cancer Res. 41(5):1751-1756(1981), incorporated herein by reference in its entirety]. For assays, frozen HCT-116 cells were thawed and grown in McCoy's 5A Modified Medium (Gibco) supplemented with 10% (v/v) FBS. Cells were sub-cultured once, and then cells in log phase growth were harvested by trypsinization. Trypsinized cells were seeded into 96-well plates (1,000 cells/well) and incubated overnight at 37° C. in the presence of 5% CO2. Compounds 6, 7, lazarimide C and cladoniamide (10 mg/mL in DMSO) were sequentially diluted in culture media (2-fold dilution starting at 50 μg/mL) across a 96-well plate and 100 μL was transferred to the appropriate well in an assay plate. The plates were incubated at 37° C. for 3 days and then evaluated for viability using a crystal violet-based colorimetric assay [See Zivadinovic et al., “Membrane estrogen receptor-alpha levels in MCF-7 breast cancer cells predict cAMP and proliferation responses.” Breast Cancer Res. 7(1):R101-112 (2005)]. Cell viability was recorded based on the absorbance at 590 nm in compound treated well relative to DMSO control wells.

[2] = test system: HCT-116 human colon carcinoma cancer cells; assay: as above; format: cell-based; details: HCT-116 cells, 3 days incubation, crystal violet absorbance at 590 nm relative to DMSO control, triplicate; read-out: IC50 (cytotoxicity against HCT-116)
Protocol: as §1, §2

COc1c2n(c3cc(Cl)c(O)cc13)[C@]1(O)C(=O)N(C)C(=O)[C@]1(O)c1c-2[nH]c2ccc(Cl)cc12 [Compound 7, lazarimide A]
IC50 at 3 days [1]: 8.4 nM

COc1c2n(c3cc(Cl)ccc13)[C@]1(O)C(=O)N(C)C(=O)[C@]1(O)c1c-2[nH]c2ccc(Cl)cc12 [Compound 6, lazarimide B]
IC50 at 3 days [1]: 11.6 nM

CN1C(=O)[C@@]2(O)c3c([nH]c4cc(Cl)ccc34)-c3[nH]c4ccc(Cl)cc4c3[C@@]2(O)C1=O [lazarimide C]
IC50 at 3 days [1]: 25800 nM

COc1c2n(c3ccccc13)[C@]1(O)C(=O)N(C)C(=O)[C@]1(O)c1c-2[nH]c2ccc(Cl)cc12 [cladoniamide A, reference compound]
IC50 [2]: 40.4 nM
